US6852754B1, “Biologically active linderazulene terpenes” (Harbor Branch Oceanographic Institution, Inc., priority 2004, dated 2005)

Legend:
[1] = tested on: P388 murine leukemia cell line; experiment: Antiproliferative MTT assay, P388 cells, 48-h exposure; assay type: cell-based; conditions: Mus musculus, read-out: P388 (IC50 μg/ml)
Method: (§1) Compounds I and II was analyzed as to their effect on the proliferation of PANC-1 human pancreatic and P388 murine leukemia cell lines. P388 cells were obtained from Dr. R. Camalier, National Cancer Institute, Bethesda, Md., and PANC-1 cells were obtained from American Type Culture Collection, Rockville, Md. All cell lines were maintained in tissue culture medium (TCM; Roswell Park Memorial Institute RPMI 1640 supplemented with 100 U/mL penicillin, […] streptomycin, […] 1-glutamine, 18 mM HEPES, 0.05 mg/mL gentamicin (Life Technologies, Gaithersburg, Md.) and 10% fetal bovine serum) and cultured in plastic tissue culture flasks at 37° C. in humidified air containing 5% CO2. Stock cultures of P388 cells were subcultured 1:20 in fresh TCM every 2 to 3 days. Stock cultures of […] cells were subcultured 1:10 every 3 to 4 days. To assess the antiproliferative effects of agents against the cells, […] cultures (96-well tissue culture plates, Nunc, Denmark) were established at 1×10^5 cells/mL in TCM or TCM containing the test agent at 0.03-5.0 μg/mL. After 48-h exposures, P388 cells were enumerated using 3-[4,5-dimethylthiazol-2-yl]-2,5-diphenyltetrazolium bromide (MTT) as described in the literature (M. C. Alley, et al., Cancer Res. 48:589, 1988). […] The results were expressed as percent inhibition compared to the negative (no drug) control. […]

[2] = tested on: PANC-1 human pancreatic cell line; experiment: Antiproliferative MTT assay, PANC-1 cells, 72 hours exposure; assay type: cell-based
Method: as §1

| IC50 [1] | IC50 ([2]; Homo sapiens, read-out: PANC-1 (IC50 μg/ml)) | PANC-1 (IC50 μg/ml) [2] | Compound |
| --- | --- | --- | --- |
| 2.7 µg/mL | 18.7 µg/mL | – | COC(=O)c1ccc2c(C)cc3occc3cc1-2 [11-carbomethoxylinderazulene (I), 11-carbomethoxylinderazulene] |
| 15.6 µg/mL | – | No inhibition of cell | Cc1cc2occc2cc2c(C=O)ccc1-2 [11-formyllinderazulene (II), 11-formyllinderazulene] |
